Assay [1] has as its target T1, HoxFU (diaphorase moiety of the NAD+-reducing soluble [NiFe]-hydrogenase, SH) (Cupriavidus necator, UniProt P22317).
T1 construct: gene hoxF; HoxFU heterodimer without HoxHY and HoxI; N-terminal Strep-tag II on HoxF kept; plasmid pGE553, homologous overproduction in R. eutropha HF424; Strep-Tactin plus size exclusion; apparent 110 kDa; HoxF 67 kDa, HoxU 27 and 23 kDa (both with original termini, unidentified modification); FMN and Fe-S clusters; with NAD-reducing hydrogenase HoxS subunit gamma
Briefly: protein film electrochemistry, Dixon plot. The format is biochemical.

Assay [2] has as its target T1, HoxFU (diaphorase moiety of the NAD+-reducing soluble [NiFe]-hydrogenase, SH). As to the kind of experiment: protein film electrochemistry, inhibition of NAD+ reduction current. The class given is biochemical. Conditions: -412 mV, 0.14 mM NAD+, 50 mM Tris-HCl pH 8.0; enzyme adsorbed on graphite electrode.

Read-outs that look alike come from different tables or passages of the source.

T1 sequence (P22317 whole entry): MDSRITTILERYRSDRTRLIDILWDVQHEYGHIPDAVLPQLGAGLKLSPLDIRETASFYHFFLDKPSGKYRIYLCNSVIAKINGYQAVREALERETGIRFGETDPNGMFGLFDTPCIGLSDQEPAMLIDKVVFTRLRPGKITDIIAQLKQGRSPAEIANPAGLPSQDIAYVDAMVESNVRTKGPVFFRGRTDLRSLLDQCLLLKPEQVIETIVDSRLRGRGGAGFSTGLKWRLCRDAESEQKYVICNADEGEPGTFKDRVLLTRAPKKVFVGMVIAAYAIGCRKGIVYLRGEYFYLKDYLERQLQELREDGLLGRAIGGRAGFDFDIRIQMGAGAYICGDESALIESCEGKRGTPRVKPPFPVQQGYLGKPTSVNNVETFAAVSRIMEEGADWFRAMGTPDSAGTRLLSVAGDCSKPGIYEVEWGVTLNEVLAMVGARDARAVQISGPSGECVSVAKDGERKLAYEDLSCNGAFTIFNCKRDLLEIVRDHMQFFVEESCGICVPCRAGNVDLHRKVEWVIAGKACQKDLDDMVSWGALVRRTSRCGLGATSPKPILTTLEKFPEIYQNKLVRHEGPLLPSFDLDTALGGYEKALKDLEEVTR
T1 sequence (P22318 2-234 partner): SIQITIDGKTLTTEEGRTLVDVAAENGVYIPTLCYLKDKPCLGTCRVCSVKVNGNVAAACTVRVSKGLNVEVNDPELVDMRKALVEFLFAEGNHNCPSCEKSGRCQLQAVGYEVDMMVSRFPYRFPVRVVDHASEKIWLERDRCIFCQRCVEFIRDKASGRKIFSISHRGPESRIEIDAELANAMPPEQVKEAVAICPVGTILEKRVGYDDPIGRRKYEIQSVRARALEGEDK

On to `NC(=O)C1=CN([C@@H]2O[C@H](COP(=O)(O)OP(=O)(O)OC[C@H]3O[C@@H](n4cnc5c(N)ncnc54)[C@H](O)[C@@H]3O)[C@@H](O)[C@H]2O)C=CC1` [NADH], for which, in assay [1] (read-out: K I(NADH)), the Ki lay in the range of 200 to 300 µM.
With `Nc1ncnc2c1ncn2[C@@H]1O[C@H](COP(=O)(O)OP(=O)(O)OC[C@H]2OC(O)[C@H](O)[C@@H]2O)[C@@H](O)[C@H]1O` (stereo partly drawn) [ADP-ribose], the “protein film electrochemistry, inhibition of NAD+ reduction current” value in assay [2] is “effect of injections of ADP-ribose on NAD^+ reduction by HoxFU, confirming that ADP-ribose is an inhibitor”.
As for `NC(=O)c1ccc[n+]([C@@H]2O[C@H](COP(=O)(O)OP(=O)(O)OC[C@H]3O[C@@H](n4cnc5c(N)ncnc54)[C@H](O)[C@@H]3O)[C@@H](O)[C@H]2O)c1` [NAD^+], the Ki in assay [1] (read-out: K I(NAD+)) is 100 to 300 µM.

The values are drawn from article PMC3189943, “Catalytic Properties of the Isolated Diaphorase Fragment of the NAD^+-Reducing [NiFe]-Hydrogenase from Ralstonia eutropha” (PLoS ONE, 2011).
